Test results from patent US20040170705A1, “Compositions and methods for non-insulin glucose uptake” (priority 2001, published 2004).
Entries after “also recorded” stand apart in the source; their conditions may differ.

How the values were obtained:
L6 muscle cells = test: glucose uptake in L6 muscle cells (2-NBDG fluorescence); format: cell-based
Experimental: The permeate portion of GMM was tested for glucose uptake in L6 muscle cells. L6 cells were grown as monolayers in Dulbecco's modified Eagle's medium (DMEM) containing 1 mM glutamine, 1 mM pyruvate and 25 mM glucose. The medium was supplemented with 5% fetal calf serum (FCS). Experiments were undertaken in 48-well plates seeded from pre-confluent flasks with 50 000 cells per well. The cells were grown to confluence and the medium was changed to DMEM containing 0.5% FCS and 2.5 mM glucose (L6 Myo Medium) for at least 76 hrs to induce differentiation of L6 cells and formation of L6 myotubes. Myotubes were then incubated with test substances for 30 minutes—Protocol SMM, or in Dulbecco's PBS supplemented with 20 mM Hepes and 2 mM glucose without serum—Serum-free Medium (SFM) Protocol as described by Fryer et al. ((Activation of glucose transport by AMP-activated protein kinase via stimulation of Nitric oxide synthase, Diabetes, 49(12), 1978-85, 2000, Fryer LGD, et al).
Next, 30 uM of 2-NBDG was added for 2 minutes at 22C. Subsequently, cell culture medium was removed and cells were washed twice with cold DPBS. Then, cells were lysed in 0.5% SDS. Fluorescence was measured at 466/542 nm (excitation/emission) using 100 ul of cell lysate in 2 ml of water.
Cells were cultured, and treated in L6 Myo Medium (SSM)—SSM Protocol or in serum-free medium (SFM-DPBS containing 20 mM Hepes, 2 mM glucose)—SFM Protoci as described by Fryer et al. Glucose uptake was measured by adding 30 uM of 2-NBDG for 2′ at 22C. Experiments were performed in duplicates.
L-NMMA has been used in the experiment to verify whether GMM-induced glucose transport in L6 cells is or is not inhibited by NOS inhibitors, thus mimicking AICAR—induced mechanism of increased glucose transport. Fryer's experimental set up was adopted, consisting of pre-treatment of cells with inhibitor for 30 minutes in DPBS and after that with agonists like AICAR or in our case GMM for next 30 minutes at 37C before performing glucose uptake.

skeletal muscle cells = conditions: cited from earlier work

NC(=O)c1[nH]cnc1N [AICA]
effect on glucose uptake (L6 muscle cells; L6 cells, 30 minutes treatment, uptake 2 minutes at 22C): stimulation

CC(=O)O.CNC(=N)NCCC[C@H](N)C(=O)O [L-NMMA, NG-methyl-L-arginine, acetate salt]
effect on permeate/GMM-induced glucose uptake (L6 muscle cells; L-NMMA 300 uM pre-treatment 30 minutes in DPBS, acetate salt): inhibits; also recorded: blocks
effect on AICA-stimulated glucose uptake (L6 muscle cells; pre-treatment with L-NMMA 30 minutes in DPBS, then AICA 30 minutes): inhibition
effect on the increase of glucose transport after activation of AMPK (skeletal muscle cells; NOS inhibitors, skeletal muscle cells): completely blocks

NC(=O)c1ncn([C@@H]2O[C@H](COP(=O)(O)O)[C@@H](O)[C@H]2O)c1N [AICAR, 5′-aminoimidazole 4-carboxamide 1-ribonucleotide]
effect on glucose uptake by pharmacological activation of AMPK (skeletal muscle cells; skeletal muscle): increase in glucose uptake

insulin: insulin used to treat L6 cells
glucose uptake increase (L6 muscle cells; culture medium supplemented with 0.5% FCS (SSM), by average): 100-120%
glucose uptake increase (L6 muscle cells; serum-free medium (DPBS)): 40-50%
